Like-named read-outs stand apart in the source and are kept apart here. Bridge positions count the residues as written; N and C are the ends. Square brackets hold non-standard residues; d marks the D form. Peptide text beside a SMILES is read from it. Nle = CCCC[C@H](N)C(=O)O
Molecular target: T1, bovine trypsin (Bos taurus, UniProt P00760)
T1 sequence (P00760 24-246): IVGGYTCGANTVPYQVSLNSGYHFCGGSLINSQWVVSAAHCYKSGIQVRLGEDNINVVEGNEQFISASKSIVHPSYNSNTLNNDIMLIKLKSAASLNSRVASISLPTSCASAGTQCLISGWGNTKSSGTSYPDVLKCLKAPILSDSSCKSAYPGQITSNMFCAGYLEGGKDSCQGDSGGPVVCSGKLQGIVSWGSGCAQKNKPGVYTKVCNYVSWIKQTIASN
Experiment: Trypsin inhibitory activity of peptides (BApNA hydrolysis, OD405; IC50, Ki, residual activity)
Type: biochemical
Conditions: for IC50: trypsin 50 nM, BApNA 1.22 mM, read-out: IC50; for Ki: Ki=IC50/(1+S/Km), Km 0.33 mM, read-out: Ki
Description: The substrates N-succinyl-Ala-Ala-Pro-Phe-p-nitroaniline (AAPFpNA), Nα—Benzoyl-L-arginine-4-nitroaniline hydrochloride (BApNA) and N-succinyl-[…] (AAApNA) are used in competitive binding reaction to determine the inhibitory activities against α-chymotrypsin, bovine trypsin, and porcine pancreatic elastase, respectively. Experiments for α-chymotrypsin and bovine trypsin inhibition were measured in 20 mM CaCl2, 50 mM Tris-HCl buffer (pH 7.8), and that for porcine elastase inhibition was measured in 50 mM Tris-HCl buffer (pH 8.0). The concentration of the peptide was measured using optical density (OD) at 280 nm. The Michaelis constant (Km) of the enzyme hydrolysis substrate is calculated from the initial rate of substrate hydrolysis at 405 nm. The absorbance value of the substrate was measured at 405 nm after complete hydrolysis. All data were processed using nonlinear regression.
• (1) Added 200 μL of reaction buffer (20 mM CaCl2 and 50 mM Tris-HCl, pH 7.8) into the 96-well plate, and preheated at 37° C. for 15 min. Then added 5 μL of different concentrations of substrates (p-Nitroanilide, pNA, 0.5% in DMSO), and mixed by centrifugation at 500 rpm for 1 min. […] The experiment was performed in triplicate. The standard curve was obtained by plotting the OD405 nm value with pNA concentration. • (2) Added 190 μL of reaction buffer (20 mM CaCl2 and 50 mM Tris-HCl, pH 7.8) and 10 μL of 1 μM trypsin into the 96-well plate, and preheated at 37° C. for 15 min. Then added 5 μL of different concentrations of substrates (BApNA, 0.5% in DMSO) and mixed by centrifugation at 500 rpm for 1 min. […] The experiment was performed in triplicate. The corresponding curve was obtained by plotting the OD405 nm value with time. Divided the slope of the curve by the slope of the standard curve and the enzyme concentration to obtain the initial velocity V0 (mM/(min*mM protein). Plotted the initial velocity V0 with the concentration of substrate BApNA using Prism software, and the Michaelis constant Km value of trypsin hydrolyzing BApNA was obtained.
• (1) Added a total 190 μL of reaction buffer (20 mM CaCl2 and 50 mM Tris-HCl, pH 7.8) along with different concentrations of anti-trypsin peptides (BTs) into the pre-cooled 96-well plate, followed by preheating at 37° C., and spined down at 500 rpm for 5 min. Next added 10 μL of 1 μM trypsin, incubated at 37° C., and then spined down at 500 rpm for 10 min. Finally, added 5 μL of 50 mM BApNA, and mixed by centrifugation at 500 rpm for 1 min. The plate was incubated at 37° C. for 260 min, and the absorbance value at 405 nm was measured. The experiment was performed in triplicate. The blank control only contained the reaction buffer and the substrate as the minimum absorption value (Min OD405 nm). The negative control only contained the reaction buffer, the enzyme and the substrate as the maximum absorption value (Max OD405 nm). • (2) In the reaction system of 205 μL, the final concentrations of trypsin and BApNA were 50 nM and 1.22 mM, respectively. • (3) Data statistics
Residual activity of the enzyme (%)=(1−(Max OD405 nm−Sample OD405 nm)/(Max OD405 nm−Min OD405 nm))*100
Plotted the residual activity of the enzyme with […] to obtain the half inhibitory concentration (IC50) of BTs scaffold against trypsin. Then, substituted it into the formula Ki=IC50/(1+S/Km) (S, IC50 and Km were substrate concentration, half inhibitory concentration and Michaelis constant, respectively) to obtain the inhibition constant Ki of BTs scaffold against trypsin.

Row | Compound | inhibitory activity against trypsin (in words) | Residual trypsin activity (peptide 0.00098 μM) | Residual trypsin activity (peptide 0.0098 μM) | Residual trypsin activity (peptide 0.098 μM) | Residual trypsin activity (peptide 0.98 μM) | Residual trypsin activity (peptide 9.76 μM) | Residual trypsin activity (peptide 97.56 μM) | also measured
1 | CC[C@H](C)[C@@H]1NC(=O)[C@@H]2CCCN2C(=O)[C@@H]2CCCN2C(=O)[C@H]([C@@H](C)CC)NC(=O)[C@H](CO)NC(=O)[C@H](CCCNC(=N)N)NC(=O)[C@H]([C@@H](C)O)NC(=O)[C@H](C)NC(=O)[C@H](CCCNC(=N)N)NC(=O)CNC(=O)[C@@H](N)CSSC[C@@H](C(=O)N[C@@H](C)C(=O)O)NC1=O [BT19] (H-CGRATRSIPPICA-OH; disulfide 1-12; N-terminus and C-terminus assumed) | significant impact on their anti-trypsisn activities | – | – | – | – | – | – | –
2 | CC[C@H](C)[C@@H]1NC(=O)[C@H](CO)NC(=O)[C@H](CCCNC(=N)N)NC(=O)[C@H]([C@@H](C)O)NC(=O)[C@H](C)NC(=O)[C@H](CCCNC(=N)N)NC(=O)CNC(=O)[C@@H](N)CSSC[C@@H](C(=O)N[C@@H](Cc2ccccc2)C(=O)O)NC(=O)[C@H]([C@@H](C)CC)NC(=O)[C@@H]2CCCN2C(=O)[C@H](C)NC1=O [BT20] (H-CGRATRSIAPICF-OH; disulfide 1-12 (inferred); N-terminus and C-terminus assumed) | – | – | – | – | – | – | – | IC50: > 50000 nM
3 | CC[C@H](C)[C@@H]1NC(=O)[C@@H]2CCCN2C(=O)[C@@H]2CCCN2C(=O)[C@H]([C@@H](C)CC)NC(=O)[C@H](C)NC(=O)[C@H](CCCNC(=N)N)NC(=O)[C@H]([C@@H](C)O)NC(=O)[C@H](C)NC(=O)[C@H](CCCNC(=N)N)NC(=O)CNC(=O)[C@@H](N)CSSC[C@@H](C(=O)N[C@@H](Cc2ccccc2)C(=O)O)NC1=O [BT22] (H-CGRATRAIPPICF-OH; disulfide 1-12; N-terminus and C-terminus assumed) | reduced their anti-trypsin activities | – | – | – | – | – | – | –
4 | CC[C@H](C)[C@@H]1NC(=O)[C@@H]2CCCN2C(=O)[C@@H]2CCCN2C(=O)[C@H]([C@@H](C)CC)NC(=O)[C@H](CO)NC(=O)[C@H](CCCCN)NC(=O)[C@H]([C@@H](C)O)NC(=O)[C@H](C)NC(=O)[C@H]([C@@H](C)O)NC(=O)CNC(=O)[C@@H](N)CSSC[C@@H](C(=O)N[C@@H](CC(N)=O)C(=O)O)NC1=O [BT24] (H-CGTATKSIPPICN-OH; disulfide 1-12; N-terminus and C-terminus assumed) | significant impact on their anti-trypsisn activities | – | – | – | – | – | – | –
5 | CC[C@H](C)[C@@H]1NC(=O)[C@@H]2CCCN2C(=O)[C@@H]2CCCN2C(=O)[C@H]([C@@H](C)CC)NC(=O)[C@H](C)NC(=O)[C@H](CCCCN)NC(=O)[C@H]([C@@H](C)O)NC(=O)[C@H](C)NC(=O)[C@H](CCCNC(=N)N)NC(=O)CNC(=O)[C@@H](N)CSSC[C@@H](C(=O)N[C@@H](Cc2ccccc2)C(=O)O)NC1=O [BT27] (H-CGRATKAIPPICF-OH; disulfide 1-12; C-terminus assumed) | reduced their anti-trypsin activities | 98.9 ± 1.5% | 103.5 ± 2.4% | 92.0 ± 1.9% | 1.3 ± 0.3% | 0.1 ± 0.0% | 0.1 ± 0.0% | Ki: 60 nM; inhibitory activity against trypsin (in words) (listed as SEQ ID NO: 27): excellent trypsin inhibitory activities; Residual trypsin activity (peptide 0.000098 μM): 101.0 ± 0.7%; Residual trypsin activity (peptide 0.195 μM): 74.1 ± 1.3%; Residual trypsin activity (peptide 0.293 μM): 49.2 ± 3.0%; Residual trypsin activity (peptide 0.390 μM): 19.9 ± 6.3%

Further lines, with some results ahead:

Row | inhibitory activity against trypsin (in words) | Residual trypsin activity (peptide 0.00098 μM) | Residual trypsin activity (peptide 0.0098 μM) | Residual trypsin activity (peptide 0.098 μM) | Residual trypsin activity (peptide 0.98 μM) | Residual trypsin activity (peptide 9.76 μM) | Residual trypsin activity (peptide 97.56 μM) | Compound | also measured
6 | reduced their anti-trypsin activities | – | – | – | – | – | – | CC[C@H](C)[C@@H]1NC(=O)[C@@H]2CCCN2C(=O)[C@@H]2CCCN2C(=O)[C@H](C)NC(=O)[C@H](CO)NC(=O)[C@H](CCCNC(=N)N)NC(=O)[C@H]([C@@H](C)O)NC(=O)[C@H](C)NC(=O)[C@H](CCCNC(=N)N)NC(=O)CNC(=O)[C@@H](N)CSSC[C@@H](C(=O)N[C@@H](Cc2ccccc2)C(=O)O)NC1=O [BT21] (H-CGRATRSAPPICF-OH; disulfide 1-12; N-terminus and C-terminus assumed) | –
7 | excellent trypsin inhibitory activities | 100.6 ± 1.3% | 99.6 ± 1.4% | 100.4 ± 1.2% | 49.7 ± 3.5% | 1.0 ± 0.1% | 0.2 ± 0.1% | CC[C@H](C)[C@@H]1NC(=O)[C@@H]2CCCN2C(=O)[C@@H]2CCCN2C(=O)[C@H]([C@@H](C)CC)NC(=O)[C@H](CO)NC(=O)[C@H](CCCCN)NC(=O)[C@H]([C@@H](C)O)NC(=O)[C@H](C)NC(=O)[C@H]([C@@H](C)O)NC(=O)CNC(=O)[C@@H](N)CSSC[C@@H](C(=O)N[C@@H](Cc2ccccc2)C(=O)O)NC1=O [BT25] (H-CGTATKSIPPICF-OH; disulfide 1-12; C-terminus assumed) | Residual trypsin activity (peptide 0.7317 μM): 82.3 ± 3.9%; Residual trypsin activity (peptide 1.2195 μM): 23.2 ± 2.1%; Residual trypsin activity (peptide 292.68 μM): 0.2 ± 0.2%
8 | – | – | 99.5 ± 0.9% | 100.2 ± 1.4% | 94.5 ± 0.7% | 0.4 ± 0.1% | 0.1 ± 0.0% | CC[C@H](C)[C@@H]1NC(=O)[C@@H]2CCCN2C(=O)[C@@H]2CCCN2C(=O)[C@H]([C@@H](C)CC)NC(=O)[C@H](CO)NC(=O)[C@H](CCCCN)NC(=O)[C@H](C)NC(=O)[C@H](C)NC(=O)[C@H](CCCNC(=N)N)NC(=O)CNC(=O)[C@@H](N)CSSC[C@@H](C(=O)N[C@@H](Cc2ccccc2)C(=O)O)NC1=O [BT26] (H-CGRAAKSIPPICF-OH; disulfide 1-12; N-terminus and C-terminus assumed) | Residual trypsin activity (peptide 1.95 μM): 77.6 ± 3.1%; Residual trypsin activity (peptide 2.439 μM): 55.1 ± 1.3%; Residual trypsin activity (peptide 3.90 μM): 1.4 ± 0.1%; Residual trypsin activity (peptide 975.61 μM): 0.5 ± 0.0%
9 | reduced their anti-trypsin activities | 102.3 ± 0.7% | 101.8 ± 0.1% | 92.2 ± 5.5% | 0.7 ± 0.0% | 0.1 ± 0.0% | 0.0 ± 0.0% | CCCC[C@@H]1NC(=O)[C@H](CO)NC(=O)[C@H](CCCCN)NC(=O)[C@H]([C@@H](C)O)NC(=O)[C@H](C)NC(=O)[C@H](CCCNC(=N)N)NC(=O)CNC(=O)[C@@H](N)CSSC[C@@H](C(=O)N[C@@H](Cc2ccccc2)C(=O)O)NC(=O)[C@H]([C@@H](C)CC)NC(=O)[C@@H]2CCCN2C(=O)[C@@H]2CCCN2C1=O [BT28] (H-CGRATKS[Nle]PPICF-OH; disulfide 1-12; C-terminus assumed) | Ki: 60 nM; inhibitory activity against trypsin (in words) (listed as SEQ ID NO: 28): excellent trypsin inhibitory activities; Residual trypsin activity (peptide 0.195 μM): 77.6 ± 8.3%; Residual trypsin activity (peptide 0.293 μM): 52.7 ± 5.9%; Residual trypsin activity (peptide 0.390 μM): 16.7 ± 3.7%; IC50: 290 nM

— patent US20230416329A1, “A PEPTIDE WITH DISULFIDE BONDS AND INHIBITORY ACTIVITY AGAINST SERINE PROTEASES, DERIVED HYBRID PEPTIDES THEREOF, AND USES THEREOF” (INSTITUTE OF MATERIA MEDICA , CHINESE ACADEMY OF MEDICAL …, priority 2020, published 2023)
